Measurements taken from patent US20240391909A1, “DISULFIDE COMPOUND, POLYSULFIDE COMPOUND, AND USE THEREOF” (KUMIAI CHEMICAL INDUSTRY CO., LTD., priority 2021, published 2024).

Test system: Helicoverpa armigera
Assay: Insecticidal activity test against Helicoverpa armigera (cabbage leaf dip)
Assay type: in vivo
Conditions: hatched larvae, 25° C., after 6 days
Procedure: A wettable powder prepared in accordance with Formulation Example 1 was diluted with water to a concentration of 500 ppm as the active ingredient. A cabbage leaf was dipped in the resultant chemical solution, air-dried, and then put in a plastic cup. Five hatched larvae of Helicoverpa armigera were released therein, and the resultant was covered. Thereafter, the resultant was placed in a constant temperature chamber of 25° C., and after 6 days, the number of dead larvae was counted to obtain a corrected mortality rate in accordance with the following equation of Expression 1. The test was performed in duplicate.

[1] = 500 ppm active ingredient, same test run with comparative formula A, 2-a retested at the same time

Structure (SMILES) | corrected mortality rate (500 ppm active ingredient (wettable powder diluted with water), first test) | corrected mortality rate [1]
Cn1nc(C(F)(F)F)c(CSSCc2c(C(F)(F)F)nn(C)c2OC(F)F)c1OC(F)F [Compound 2-a, 1,2-bis[(5-difluoromethoxy-1-methyl-3-trifluoromethylpyrazol-4-yl)methyl]disulfide] | 75% | 89%
Cc1cc(CSSCc2cc(C)[nH]n2)n[nH]1 [formula A, reference compound] |  | 44%
